# pIC50, pKi: −log10 of the molar value.
# Legend:
# [1] = Binding affinity to Mushroom Tyrosinase assessed as inhibition constant
# [2] = target: T1, Mushroom tyrosinase (Agaricus bisporus, UniProt O42713+Q00024+C7FF04+C7FF05); assay: Inhibition of mushroom Tyrosinase; assay type: protein assay
# [3] = target: T1, Mushroom tyrosinase; assay: Inhibition of mushroom Tyrosinase using L-DOPA as substrate assessed as inhibition constant by Michaelis-Menten analysis; assay type: protein assay
# [4] = target: T2, Tyrosinase (Homo sapiens, UniProt P14679); assay: Binding affinity to human Tyrosinase assessed as inhibition constant
# T2 sequence (P14679 whole entry): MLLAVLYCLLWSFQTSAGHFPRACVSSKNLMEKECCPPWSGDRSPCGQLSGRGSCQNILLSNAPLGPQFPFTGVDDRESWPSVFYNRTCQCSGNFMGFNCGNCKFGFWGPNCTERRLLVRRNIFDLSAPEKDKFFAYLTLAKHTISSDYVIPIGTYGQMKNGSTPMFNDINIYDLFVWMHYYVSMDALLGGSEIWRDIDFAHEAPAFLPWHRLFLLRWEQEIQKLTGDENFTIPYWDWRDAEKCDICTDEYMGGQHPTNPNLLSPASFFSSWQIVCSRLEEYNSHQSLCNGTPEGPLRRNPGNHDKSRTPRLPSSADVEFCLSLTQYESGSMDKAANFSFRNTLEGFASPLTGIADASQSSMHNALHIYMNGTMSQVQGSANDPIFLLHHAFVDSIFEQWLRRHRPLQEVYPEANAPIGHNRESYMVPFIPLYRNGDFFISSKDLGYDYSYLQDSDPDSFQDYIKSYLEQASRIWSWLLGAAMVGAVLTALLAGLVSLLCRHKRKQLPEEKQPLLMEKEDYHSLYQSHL
# [5] = Inhibition of Bacterial Tyrosinase; parameters: species or system Bacteria
# [6] = target: T1, Mushroom tyrosinase; assay: Binding affinity to mushroom Tyrosinase using L-DOPA as substrate assessed as inhibition constant by Michaelis-Menten analysis; assay type: protein assay
# [7] = target: T1, Mushroom tyrosinase; assay: Inhibition of mushroom Tyrosinase by using L-DOPA as substrate by spectrophotometric assay; assay type: protein assay
# [8] = Biniding affinity to bacterial Tyrosinase assessed as inhibition constant; parameters: species or system Bacteria
# [9] = target: T2, Tyrosinase; assay: Binding affinity to human Tyrosinase using L-DOPA as substrate assessed as inhibition constant by Michaelis-Menten analysis
# [10] = target: T2, Tyrosinase; assay: Inhibition of human tyrosinase using L-DOPA as substrate by spectrophotometer analysis
# [11] = Inhibition of human Tyrosine kinase
# [12] = Binding affinity to bacterial Tyrosinase assessed as inhibition constant; parameters: species or system Bacteria
# [13] = test system: OC[C@H]1O[C@@H](Oc2ccc(O)cc2)[C@H](O)[C@@H](O)[C@@H]1O; assay: (§1) Binding affinity to mushroom tyrosinase assessed as catalytic constant using L-DOPA as substrate by Michaelis-Menten analysis; assay type: protein assay; conditions: Agaricus bisporus
# [14] = test system: Oc1ccc(/C=C/c2cc(O)cc(O)c2)cc1; assay: as §1; assay type: protein assay; conditions: Agaricus bisporus
# [15] = test system: O=C1/C(=C/c2ccc(O)cc2)Oc2cc(O)ccc21; assay: as §1; assay type: protein assay; conditions: Agaricus bisporus
# [16] = test system: Oc1ccc(OC2CCCCO2)cc1; assay: as §1; assay type: protein assay; conditions: Agaricus bisporus
# [17] = test system: O=C(O)/C=C/c1ccc(O)c(O)c1; assay: (§2) Binding affinity to mushroom tyrosinase assessed as catalytic constant; assay type: protein assay; conditions: Agaricus bisporus
# [18] = test system: CC(C)NCC(O)c1ccc(O)c(O)c1; assay: as §2; assay type: protein assay; conditions: Agaricus bisporus
# [19] = test system: O=c1c(O)c(-c2ccc(O)c(O)c2)oc2cc(O)cc(O)c12; assay: as §2; assay type: protein assay; conditions: Agaricus bisporus
# [20] = test system: Cc1ccc(O)c(O)c1; assay: as §2; assay type: protein assay; conditions: Agaricus bisporus
# [21] = test system: N[C@H](Cc1ccc(O)c(O)c1)C(=O)O; assay: as §2; assay type: protein assay; conditions: Agaricus bisporus
# [22] = test system: NCCc1ccc(O)c(O)c1; assay: as §2; assay type: protein assay; conditions: Agaricus bisporus
# [23] = test system: N[C@@H](Cc1ccc(O)c(O)c1)C(=O)O; assay: as §2; assay type: protein assay; conditions: Agaricus bisporus
# [24] = test system: O=C(O)Cc1ccc(O)c(O)c1; assay: as §2; assay type: protein assay; conditions: Agaricus bisporus
# [25] = test system: Oc1ccccc1O; assay: as §2; assay type: protein assay; conditions: Agaricus bisporus
# [26] = test system: CC(C)(C)c1ccc(O)c(O)c1; assay: as §2; assay type: protein assay; conditions: Agaricus bisporus
# [27] = test system: N[C@@H](Cc1ccc(O)cc1)C(=O)O; assay: as §2; assay type: protein assay; conditions: Agaricus bisporus
# [28] = test system: O=C(/C=C/c1ccc(O)c(O)c1)O[C@H](Cc1ccc(O)c(O)c1)C(=O)O; assay: as §2; assay type: protein assay; conditions: Agaricus bisporus
# [29] = test system: Oc1ccccc1; assay: (§3) Binding affinity to mushroom tyrosinase assessed as catalytic constant by Michaelis-Menten analysis; assay type: protein assay; conditions: Agaricus bisporus
# [30] = test system: COc1ccc(O)cc1; assay: as §3; assay type: protein assay; conditions: Agaricus bisporus
# [31] = test system: N[C@H](Cc1ccc(O)cc1)C(=O)O; assay: as §3; assay type: protein assay; conditions: Agaricus bisporus
# [32] = test system: O=C(O)Cc1ccc(O)cc1; assay: as §3; assay type: protein assay; conditions: Agaricus bisporus
# [33] = test system: NCCc1ccc(O)cc1; assay: as §3; assay type: protein assay; conditions: Agaricus bisporus
# [34] = test system: Oc1ccccc1; assay: (§4) Binding affinity to mushroom tyrosinase […]; assay type: protein assay; conditions: Agaricus bisporus
# [35] = test system: CC(C)NCC(O)c1ccc(O)c(O)c1; assay: as §4; assay type: protein assay; conditions: Agaricus bisporus
# [36] = test system: O=c1c(O)c(-c2ccc(O)c(O)c2)oc2cc(O)cc(O)c12; assay: as §4; assay type: protein assay; conditions: Agaricus bisporus
# [37] = test system: OC[C@H]1O[C@@H](Oc2ccc(O)cc2)[C@H](O)[C@@H](O)[C@@H]1O; assay: as §4; assay type: protein assay; conditions: Agaricus bisporus
# [38] = test system: Cc1ccc(O)c(O)c1; assay: as §4; assay type: protein assay; conditions: Agaricus bisporus
# [39] = test system: COc1ccc(O)cc1; assay: as §4; assay type: protein assay; conditions: Agaricus bisporus
# [40] = test system: NCCc1ccc(O)c(O)c1; assay: as §4; assay type: protein assay; conditions: Agaricus bisporus
# [41] = test system: N[C@H](Cc1ccc(O)cc1)C(=O)O; assay: as §4; assay type: protein assay; conditions: Agaricus bisporus
# [42] = test system: N[C@@H](Cc1ccc(O)c(O)c1)C(=O)O; assay: as §4; assay type: protein assay; conditions: Agaricus bisporus
# [43] = test system: O=C(O)Cc1ccc(O)cc1; assay: as §4; assay type: protein assay; conditions: Agaricus bisporus
# [44] = test system: NCCc1ccc(O)cc1; assay: as §4; assay type: protein assay; conditions: Agaricus bisporus
# [45] = test system: Oc1ccccc1O; assay: as §4; assay type: protein assay; conditions: Agaricus bisporus
# [46] = test system: CC(C)(C)c1ccc(O)c(O)c1; assay: as §4; assay type: protein assay; conditions: Agaricus bisporus
# [47] = test system: Oc1ccc(OC2CCCCO2)cc1; assay: as §4; assay type: protein assay; conditions: Agaricus bisporus
# [48] = test system: N[C@@H](Cc1ccc(O)cc1)C(=O)O; assay: as §4; assay type: protein assay; conditions: Agaricus bisporus
# Mushroom tyrosinase (Agaricus bisporus), sequence (C7FF05 whole entry, looked up): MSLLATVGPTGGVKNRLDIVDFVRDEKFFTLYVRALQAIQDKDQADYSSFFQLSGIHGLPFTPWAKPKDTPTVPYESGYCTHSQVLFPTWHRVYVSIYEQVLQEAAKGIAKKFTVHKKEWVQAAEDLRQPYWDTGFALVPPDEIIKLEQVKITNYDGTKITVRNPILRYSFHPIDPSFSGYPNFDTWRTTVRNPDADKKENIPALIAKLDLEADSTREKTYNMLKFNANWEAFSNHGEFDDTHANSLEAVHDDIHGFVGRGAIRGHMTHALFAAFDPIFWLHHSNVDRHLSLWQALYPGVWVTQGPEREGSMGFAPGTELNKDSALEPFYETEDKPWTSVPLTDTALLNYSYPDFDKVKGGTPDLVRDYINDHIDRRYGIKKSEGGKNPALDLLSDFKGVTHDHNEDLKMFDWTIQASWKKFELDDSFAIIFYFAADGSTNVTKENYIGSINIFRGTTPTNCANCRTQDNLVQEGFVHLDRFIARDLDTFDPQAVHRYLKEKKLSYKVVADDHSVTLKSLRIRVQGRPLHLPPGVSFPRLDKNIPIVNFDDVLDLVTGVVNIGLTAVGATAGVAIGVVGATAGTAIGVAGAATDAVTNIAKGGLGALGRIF
# Mushroom tyrosinase (Agaricus bisporus), sequence (C7FF04 whole entry, looked up): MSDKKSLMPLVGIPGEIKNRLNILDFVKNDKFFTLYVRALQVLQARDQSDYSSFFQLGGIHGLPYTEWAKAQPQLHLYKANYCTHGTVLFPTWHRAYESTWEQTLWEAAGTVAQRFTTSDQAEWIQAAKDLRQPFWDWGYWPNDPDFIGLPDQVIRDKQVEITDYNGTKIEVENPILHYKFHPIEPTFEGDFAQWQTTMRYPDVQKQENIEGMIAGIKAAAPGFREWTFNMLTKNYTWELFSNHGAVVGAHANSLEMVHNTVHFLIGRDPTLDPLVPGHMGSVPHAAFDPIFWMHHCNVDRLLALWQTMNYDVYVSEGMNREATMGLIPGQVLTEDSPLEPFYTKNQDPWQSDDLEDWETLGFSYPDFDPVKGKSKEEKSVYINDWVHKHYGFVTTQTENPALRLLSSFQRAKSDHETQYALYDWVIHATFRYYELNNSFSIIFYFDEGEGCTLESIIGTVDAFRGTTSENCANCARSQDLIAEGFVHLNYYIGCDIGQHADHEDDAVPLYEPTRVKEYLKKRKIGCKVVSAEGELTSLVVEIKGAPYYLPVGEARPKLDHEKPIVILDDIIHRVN
# Mushroom tyrosinase (Agaricus bisporus), sequence (Q00024 whole entry, looked up): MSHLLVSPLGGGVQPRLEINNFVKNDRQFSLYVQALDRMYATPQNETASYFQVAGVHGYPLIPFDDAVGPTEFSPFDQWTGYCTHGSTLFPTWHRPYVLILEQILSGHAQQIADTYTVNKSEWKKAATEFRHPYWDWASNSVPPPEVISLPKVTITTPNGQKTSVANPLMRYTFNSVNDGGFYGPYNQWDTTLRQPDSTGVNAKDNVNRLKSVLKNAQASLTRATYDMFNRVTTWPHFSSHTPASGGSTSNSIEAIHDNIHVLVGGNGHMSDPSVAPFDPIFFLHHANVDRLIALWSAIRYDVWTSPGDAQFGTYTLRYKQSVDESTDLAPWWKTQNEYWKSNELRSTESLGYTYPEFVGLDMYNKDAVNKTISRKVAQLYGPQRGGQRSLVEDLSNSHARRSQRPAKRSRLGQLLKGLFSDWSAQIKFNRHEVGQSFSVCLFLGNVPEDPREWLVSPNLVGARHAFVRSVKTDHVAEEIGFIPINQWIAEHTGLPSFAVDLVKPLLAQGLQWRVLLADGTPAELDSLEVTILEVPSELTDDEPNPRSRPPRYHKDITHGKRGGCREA
# Mushroom tyrosinase (Agaricus bisporus), sequence (O42713 whole entry, looked up): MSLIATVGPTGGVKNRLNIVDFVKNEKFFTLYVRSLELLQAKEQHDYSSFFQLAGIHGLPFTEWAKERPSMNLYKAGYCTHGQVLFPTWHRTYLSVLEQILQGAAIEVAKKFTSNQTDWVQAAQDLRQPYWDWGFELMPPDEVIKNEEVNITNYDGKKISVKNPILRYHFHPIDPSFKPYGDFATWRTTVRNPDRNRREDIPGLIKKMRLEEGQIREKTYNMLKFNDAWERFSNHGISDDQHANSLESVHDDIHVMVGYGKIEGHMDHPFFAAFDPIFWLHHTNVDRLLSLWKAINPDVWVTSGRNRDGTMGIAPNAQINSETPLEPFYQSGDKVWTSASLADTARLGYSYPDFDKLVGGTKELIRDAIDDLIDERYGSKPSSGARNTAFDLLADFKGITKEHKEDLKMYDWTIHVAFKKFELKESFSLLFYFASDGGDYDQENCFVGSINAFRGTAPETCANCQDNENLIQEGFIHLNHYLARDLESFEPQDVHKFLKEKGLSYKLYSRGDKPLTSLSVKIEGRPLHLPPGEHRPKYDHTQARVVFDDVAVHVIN
compound,measurement,setting,value
NCCn1ccc(=O)c(O)c1,pKi,[1],4.85
O=c1cc(CSC2CCCCC2)occ1O,IC50,[2],0.087 µM
On1ccccc1=S,IC50,[3],6.1 µM
NC(=S)N/N=C/c1cc(=O)c(O)co1,pKi,[4],3.59
same,IC50,[2],10 µM
same,pIC50,[5],5.80
Cc1c(C)c2c(c(C)c1O)CCC(C)(C(=O)OCc1cc(=O)c(O)co1)O2 (centres undefined),IC50,[2],5.4 µM
O=C(/C=C/c1ccc2c(c1)OCO2)OCc1cc(=O)c(O)co1,IC50,[2],1.4 µM
COc1ccc(C(=O)OCc2cc(=O)c(O)co2)cc1,IC50,[2],2 µM
Oc1cccnc1O,Ki,[6],22 µM
O=C(N[C@@H](Cc1ccccc1)C(=O)OCc1cc(=O)c(O)c[nH]1)OCc1ccccc1,IC50,[2],9 µM
O=C1/C(=C/c2ccc(=O)n(O)c2)Oc2cccc(O)c21,Ki,[6],1.02 µM
O=C1/C(=C/c2ccc(=O)n(O)c2)Oc2cc(O)cc(O)c21,Ki,[6],1.2 µM
O=C1/C(=C/c2ccc(=O)n(O)c2)Oc2cc(O)ccc21,Ki,[6],0.35 µM
same,IC50,[3],1.5 µM
O=c1cc(CSc2nnc(-c3ccccc3)n2NCc2ccc(O)cc2O)occ1O,IC50,[7],1.4 µM
CCCCCCCCn1cc(O)c(=O)cc1COC(=O)[C@@H](N)Cc1ccccc1,IC50,[2],4 µM
CCOC(=O)/C=C/c1cc(=O)c(O)co1,IC50,[2],36 µM
CCCCCCCCn1cc(O)c(=O)cc1/C=N/OCC,IC50,[2],8 µM
O=c1ccc(CO)cn1O,pKi,[8],5.39
N[C@@H](Cc1ccc(=O)n(O)c1)C(=O)O,pKi,[8],4.41
O=Cc1ccc(OCc2cc(=O)c(O)co2)cc1F,IC50,[2],5.3 µM
CCCCCCCCn1cc(O)c(=O)cc1C=O,IC50,[2],7.8 µM
O=c1cc(CSCCCCSCc2cc(=O)c(O)co2)occ1O,IC50,[2],3 µM
O=c1oc2ccc(O)cc2cc1O,IC50,[3],10 µM
CCCCCCn1cc(O)c(=O)cc1/C=C/c1cc(O)cc(O)c1,IC50,[2],16 µM
O=c1cc(CSc2nc3ccccc3c(=O)n2CCc2ccccn2)occ1O,IC50,[7],0.46 µM
O=C(CCNC(=O)OCc1cc(=O)c(O)co1)OCc1cc(=O)c(O)co1,IC50,[2],7 µM
Nc1cc2ccc(O)cc2oc1=O,IC50,[3],53 µM
CCn1ccc(=O)c(O)c1,pKi,[1],5.40
COc1ccccc1/C=C/C=N/Nc1nnc(SCc2cc(=O)c(O)co2)n1N,IC50,[7],7.5 µM
O=c1cc(CSc2nc3ccccc3s2)occ1O,IC50,[7],> 3 µM
CC(C)[C@@H](NC(=O)[C@@H](N)Cn1ccc(=O)c(O)c1)C(=O)O,IC50,[2],10.3 µM
NC(=S)N/N=C\c1ccc(=O)n(O)c1,Ki,[6],0.56 µM
same,IC50,[3],0.56 µM
same,pKi,[9],4.33
same,pKi,[8],5.70
CN(C)c1ccc(-c2nnc(SCc3cc(=O)c(O)co3)nc2-c2ccc(N(C)C)cc2)cc1,IC50,[7],0.34 µM
O=c1cc(CSc2nnc(-c3ccc(F)cc3)o2)occ1O,IC50,[7],5.3 µM
CC(C)c1ccccc(=O)c1O [ALPHA-THUJAPLICIN],Ki,[6],9.5 µM
same,pIC50,[10],< 3.00
Cc1c(O)c(=O)ccn1C [DEFERIPRONE],IC50,[2],30 µM
CC(C)c1ccc(O)c(=O)cc1 [GAMMA-THUJAPLICIN],Ki,[6],0.07 µM
CC(C)c1cccc(=O)c(O)c1 [HINOKITIOL],Ki,[6],0.09 µM
O=c1cc(CO)occ1O [KOJIC ACID],pIC50,[11],4.51
N[C@@H](Cn1ccc(=O)c(O)c1)C(=O)O [L-MIMOSINE],pKi,[12],4.27
same,pKi,[1],5.10
O=c1cccccc1O [TROPOLONE],Ki,[6],8 µM
Mushroom tyrosinase (Agaricus bisporus) (from UniProt O42713+Q00024+C7FF04+C7FF05),kcat,[13],3.8 s⁻¹
same,kcat,[14],69 s⁻¹
same,kcat,[15],2.3 s⁻¹
same,kcat,[16],1.95 s⁻¹
same,kcat,[17],403 s⁻¹
same,kcat,[18],29 s⁻¹
same,kcat,[19],6.2 s⁻¹
same,kcat,[20],842 s⁻¹
same,kcat,[21],108 s⁻¹
same,kcat,[22],475 s⁻¹
same,kcat,[23],107 s⁻¹
same,kcat,[24],632 s⁻¹
same,kcat,[25],874 s⁻¹
same,kcat,[26],642 s⁻¹
same,kcat,[27],7.9 s⁻¹
same,kcat,[28],68 s⁻¹
same,kcat,[29],13 s⁻¹
same,kcat,[30],184 s⁻¹
same,kcat,[31],8.7 s⁻¹
same,kcat,[32],44 s⁻¹
same,kcat,[33],26 s⁻¹
same,Km,[34],0.7 µM
same,Km,[35],7100 µM
same,Km,[36],0.12 µM
same,Km,[37],3000 µM
same,Km,[38],100 µM
same,Km,[39],80 µM
same,Km,[40],720 µM
same,Km,[41],2.5 µM
same,Km,[42],800 µM
same,Km,[43],1910 µM
same,Km,[44],0.51 µM
same,Km,[45],0.16 µM
same,Km,[46],2.8 µM
same,Km,[47],0.033 µM
same,Km,[48],0.21 µM

# Source: ChEMBL document CHEMBL5634078, “Catechol-mimicking transition-state analogues as non-oxidizable inhibitors of tyrosinases” (Eur J Med Chem, 2023)
